Experimental findings from patent publication US7981939B2, “Application of 2-bromide-isovanillin for the manufacture of a medicament for anti-cancer or/and radiation/chemotherapy sensitization” (Institute of Radiation Medicine, Academy of Military …, priority 2005, dated 2011) are described below.

The test system of assay [1] is human liver cancer cell line 7402. As to the kind of experiment: G2/M arrest by flow cytometry, 7402. Format: cell-based. To be noted: 7402, 40 μmol/L, 24 hrs. Here is the method:
By way of example, human liver cancer cell lines HepG2 and 7402, human ovarian cancer cell lines HOC8 and A2780, human glioma cell line BT325, lung cancer cell line A549, brain metastatic lung cancer cell line BT72 and prostate cancer cell line IB-4 were used to investigate the G2/M arresting of solid tumor cells of different tissue origins by 2-bromo-isovanillin as measured by the ratio of cells at G2/M phase. Specifically, the cancer cells were divided into two groups, and were treated with 0 or 40 μmol/L 2-bromo-isovanillin for 24 hours. Then the cells were harvested and analyzed for changes in cell cycle and cell apoptosis by flow cytometry.

The test system of assay [2] is human cervical cancer cell line HeLa. As to the kind of experiment: MTT assay, proliferation of HeLa cells. The class given is cell-based. Here is the method:
(§1) Human cervical cancer cell line HeLa, human liver cancer cell line HepG2/7221/7402, human ovarian cancer cell line HOC8/A2780, human glioma cell line BT325, lung cancer cell line A549, brain metastatic lung cancer cell line BT72 and normal human hepatic cell line LO2 were all grown in DMEM liquid medium supplemented with 10% newborn calf serum. Human leukemia cell line Jurkat was grown in 1640 medium supplemented with 10% newborn calf serum. The above cell lines were cultured in a CO2 incubator at 5% CO2 at 37° C.
By way of example, human cervical cancer cell line HeLa was used to study the effect of vanillin on the proliferation of cancer cells by MTT assay. Specifically, human cervical cancer cells HeLa were seeded into a 96-well plate at a density of 5×10^3 cells/well, and were divided into four groups. To each of the groups vanillin was added at a concentration of 0, 100, 250 or 500 μmol/L, respectively, and was allowed to grow for 4 days. Using the MTT assay, the optical density (OD) values at 490 nm were measured and recorded every day, wherein the OD value is indicative of the number of cells, i.e., the proliferation of cells.
By way of example, human cervical cancer cell line HeLa was used to study the effect of several vanillin derivatives for 72 hrs on the proliferation of cancer cells by MTT assay. Specifically, human cervical cancer cells HeLa were seeded into a 96-well plate at a density of 5×10^3 cells/well, and were divided into four groups. To each of the groups were added increasing concentrations (0, 10, 20, 30, 40 μmol/L) of vanillin derivatives ethyl vanillin (Code No. VAND3206), 4-methoxy vanillin (Code No. VAND3207), isovanillin (Code No. VAND3209) and 2-bromo-isovanillin (Code No. VAND3208), and the cells were cultured for 72 hrs. Using the MTT assay, the optical density (OD) values at 490 nm were measured and recorded every day, wherein the OD value is indicative of the number of cells, i.e., the proliferation of cells.
By way of example, human cervical cancer cell line HeLa was used to study the inhibitory effect of 2-bromo-isovanillin at different concentrations for different periods of time on the proliferation of cancer cells by MTT assay. Specifically, human cervical cancer cells HeLa were seeded into a 96-well plate at a density of 5×10^3 cells/well, and were divided into […]. To each of the groups 2-bromo-isovanillin was added at a concentration of 0, 10, 20, 30, 40 or 50 μmol/L, and was cultured for 14 days, respectively. Using the MTT assay, the optical density (OD) values at 490 nm were measured and recorded every day, wherein the OD value is indicative of the number of cells, i.e., the proliferation of cells.
A general note: Formazan colour is commonly taken as a measure of viable cells.

For assay [3], the system named is ovarian cancer cell line A2780. Nature of the assay: Clonogenic assay, 6 days of continuous action, A2780. Format: cell-based, human. Here is the method:
as §1
By way of example, human cervical cancer cell line HeLa, lung cancer cell line A549, and ovarian cancer cell lines A2780 and HOC8 were used to determine the killing of cancer cells by 2-bromo-isovanillin for 6 days. Specifically, four groups were formed according to the type of the cancer cells. The cancer cells were diluted as appropriate, and were respectively plated into Petri dishes with a diameter of […], the amount of the cells adjusted depending on the concentration of 2-bromo-isovanillin to be added. Once adherence was achieved, each cell type received dosages of 0, 5, 10, 15, 20, 25, 30 and 35 μmol/L in triplicates. After 6 days of continuous action, the medium was replaced by a drug-free DMEM liquid medium. […] Then the cell clones were counted. The experimental data were expressed as the mean of 2-4 experiments and were plotted as a growth curve of cancer cells.

In the case of `COc1ccc(C=O)c(Br)c1O` [2-bromo-isovanillin, 2-bromo-3-hydroxy-4-methoxybenzaldehyde], the cell cycle effect entry in assay [1] was “arrested at G2/M phase”. The “effect on the proliferation of HeLa cells” value is listed as “remarkable inhibitory effect” in assay [2] (20 μmol/L); “completely lost their proliferative capabilities” in assay [2] (30 μmol/L or above for 4 days); “significant inhibition” in assay [2] (concentrations of less than 40 μmol/L, up to 72 hrs). For the same molecule, the survival rate result in assay [3] (A2780, 20 μmol/L) is reported as “lower than 10%”. Further, in assay [3] (A2780, 30 μmol/L), the proliferation result is recorded as “completely inhibited”.
